ChEMBL document CHEMBL1149131, “QSAR study of anticonvulsant negative allosteric modulators of the AMPA receptor” (J Med Chem, 2004)

Assays:
[1] = target: T1, Glutamate receptor ionotropic, AMPA (Mus musculus) (UniProt P23819+P23818+Q9Z2W8+Q9Z2W9); experiment: In vivo anticonvulsant activity was measured as median effective dose required to prevent tonic phase of seizure in DBA/2 mice; assay type: functional, organism-based
[2] = target: T1, Glutamate receptor ionotropic, AMPA (Mus musculus); experiment: In vivo anticonvulsant activity was measured as median effective dose required to prevent clonic phase of seizure in DBA/2 mice; assay type: functional, organism-based

T1 sequence (P23818 whole entry, looked up): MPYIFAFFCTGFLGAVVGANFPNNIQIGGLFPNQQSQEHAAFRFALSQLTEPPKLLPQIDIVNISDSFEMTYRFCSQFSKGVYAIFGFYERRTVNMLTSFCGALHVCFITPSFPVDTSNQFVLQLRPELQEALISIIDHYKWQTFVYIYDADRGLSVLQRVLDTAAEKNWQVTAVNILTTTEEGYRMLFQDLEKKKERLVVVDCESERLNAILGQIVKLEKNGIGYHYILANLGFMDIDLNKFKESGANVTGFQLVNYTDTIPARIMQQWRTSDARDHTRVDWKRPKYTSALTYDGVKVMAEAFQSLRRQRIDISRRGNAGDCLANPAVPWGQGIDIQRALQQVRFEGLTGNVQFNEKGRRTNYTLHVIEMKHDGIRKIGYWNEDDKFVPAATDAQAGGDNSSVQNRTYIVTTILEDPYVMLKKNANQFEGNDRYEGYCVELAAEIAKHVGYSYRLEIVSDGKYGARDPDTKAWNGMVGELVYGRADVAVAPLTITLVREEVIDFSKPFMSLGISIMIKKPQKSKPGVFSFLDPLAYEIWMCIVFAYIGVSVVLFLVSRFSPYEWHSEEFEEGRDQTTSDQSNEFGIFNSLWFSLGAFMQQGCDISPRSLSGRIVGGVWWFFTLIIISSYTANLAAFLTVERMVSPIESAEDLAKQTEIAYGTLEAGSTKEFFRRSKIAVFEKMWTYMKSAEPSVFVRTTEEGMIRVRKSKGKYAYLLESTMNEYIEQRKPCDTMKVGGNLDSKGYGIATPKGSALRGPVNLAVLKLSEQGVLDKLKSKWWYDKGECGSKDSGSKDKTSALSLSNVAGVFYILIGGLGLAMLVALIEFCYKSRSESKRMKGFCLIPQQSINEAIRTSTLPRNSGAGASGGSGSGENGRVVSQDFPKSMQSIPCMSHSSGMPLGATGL
T1 sequence (P23819 whole entry, looked up): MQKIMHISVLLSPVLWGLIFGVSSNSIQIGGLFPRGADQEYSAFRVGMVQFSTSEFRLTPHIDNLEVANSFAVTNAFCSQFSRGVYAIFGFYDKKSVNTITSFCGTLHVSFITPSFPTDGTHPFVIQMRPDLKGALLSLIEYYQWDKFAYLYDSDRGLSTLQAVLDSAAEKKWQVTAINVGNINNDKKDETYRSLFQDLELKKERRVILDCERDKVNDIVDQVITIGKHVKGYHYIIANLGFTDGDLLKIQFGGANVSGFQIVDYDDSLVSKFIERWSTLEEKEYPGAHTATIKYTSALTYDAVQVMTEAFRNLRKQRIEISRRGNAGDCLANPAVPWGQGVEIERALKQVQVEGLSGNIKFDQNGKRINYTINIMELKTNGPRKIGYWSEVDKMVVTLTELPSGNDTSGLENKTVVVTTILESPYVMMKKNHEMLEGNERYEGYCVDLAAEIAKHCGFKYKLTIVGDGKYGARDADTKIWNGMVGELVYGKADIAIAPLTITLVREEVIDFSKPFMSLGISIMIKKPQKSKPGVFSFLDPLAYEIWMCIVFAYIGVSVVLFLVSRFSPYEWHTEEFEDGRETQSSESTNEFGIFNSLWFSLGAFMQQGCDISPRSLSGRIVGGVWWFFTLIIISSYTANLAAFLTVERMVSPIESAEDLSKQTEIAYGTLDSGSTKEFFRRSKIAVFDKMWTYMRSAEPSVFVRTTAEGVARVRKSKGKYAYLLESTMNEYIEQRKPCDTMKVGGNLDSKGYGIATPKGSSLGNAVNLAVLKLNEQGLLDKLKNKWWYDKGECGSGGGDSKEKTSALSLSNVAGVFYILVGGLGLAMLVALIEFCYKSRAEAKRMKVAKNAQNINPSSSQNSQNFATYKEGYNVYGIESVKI
T1 sequence (Q9Z2W8 whole entry, looked up): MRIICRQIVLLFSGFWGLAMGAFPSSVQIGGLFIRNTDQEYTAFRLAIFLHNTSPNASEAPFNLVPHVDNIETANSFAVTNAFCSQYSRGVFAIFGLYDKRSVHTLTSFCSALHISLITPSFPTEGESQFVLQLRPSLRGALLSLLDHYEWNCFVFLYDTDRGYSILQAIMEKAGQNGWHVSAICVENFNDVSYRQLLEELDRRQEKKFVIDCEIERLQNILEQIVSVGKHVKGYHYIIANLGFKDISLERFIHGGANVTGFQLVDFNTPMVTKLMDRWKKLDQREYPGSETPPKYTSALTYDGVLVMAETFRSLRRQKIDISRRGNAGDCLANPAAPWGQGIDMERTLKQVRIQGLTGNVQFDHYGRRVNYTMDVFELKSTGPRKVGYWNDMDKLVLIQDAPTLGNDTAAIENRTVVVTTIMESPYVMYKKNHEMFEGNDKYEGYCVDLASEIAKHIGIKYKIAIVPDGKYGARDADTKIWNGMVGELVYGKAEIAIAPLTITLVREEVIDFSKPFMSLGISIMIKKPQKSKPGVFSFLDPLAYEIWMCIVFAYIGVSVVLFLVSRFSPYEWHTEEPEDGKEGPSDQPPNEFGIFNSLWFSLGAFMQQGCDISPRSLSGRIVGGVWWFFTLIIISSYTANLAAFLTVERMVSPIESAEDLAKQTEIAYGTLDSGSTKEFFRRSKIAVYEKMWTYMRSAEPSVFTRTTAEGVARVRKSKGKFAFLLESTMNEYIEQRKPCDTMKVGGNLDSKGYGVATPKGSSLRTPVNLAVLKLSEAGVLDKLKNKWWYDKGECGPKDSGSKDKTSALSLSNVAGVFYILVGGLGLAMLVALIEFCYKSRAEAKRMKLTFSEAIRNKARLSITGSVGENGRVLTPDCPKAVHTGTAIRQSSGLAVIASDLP
T1 sequence (Q9Z2W9 whole entry, looked up): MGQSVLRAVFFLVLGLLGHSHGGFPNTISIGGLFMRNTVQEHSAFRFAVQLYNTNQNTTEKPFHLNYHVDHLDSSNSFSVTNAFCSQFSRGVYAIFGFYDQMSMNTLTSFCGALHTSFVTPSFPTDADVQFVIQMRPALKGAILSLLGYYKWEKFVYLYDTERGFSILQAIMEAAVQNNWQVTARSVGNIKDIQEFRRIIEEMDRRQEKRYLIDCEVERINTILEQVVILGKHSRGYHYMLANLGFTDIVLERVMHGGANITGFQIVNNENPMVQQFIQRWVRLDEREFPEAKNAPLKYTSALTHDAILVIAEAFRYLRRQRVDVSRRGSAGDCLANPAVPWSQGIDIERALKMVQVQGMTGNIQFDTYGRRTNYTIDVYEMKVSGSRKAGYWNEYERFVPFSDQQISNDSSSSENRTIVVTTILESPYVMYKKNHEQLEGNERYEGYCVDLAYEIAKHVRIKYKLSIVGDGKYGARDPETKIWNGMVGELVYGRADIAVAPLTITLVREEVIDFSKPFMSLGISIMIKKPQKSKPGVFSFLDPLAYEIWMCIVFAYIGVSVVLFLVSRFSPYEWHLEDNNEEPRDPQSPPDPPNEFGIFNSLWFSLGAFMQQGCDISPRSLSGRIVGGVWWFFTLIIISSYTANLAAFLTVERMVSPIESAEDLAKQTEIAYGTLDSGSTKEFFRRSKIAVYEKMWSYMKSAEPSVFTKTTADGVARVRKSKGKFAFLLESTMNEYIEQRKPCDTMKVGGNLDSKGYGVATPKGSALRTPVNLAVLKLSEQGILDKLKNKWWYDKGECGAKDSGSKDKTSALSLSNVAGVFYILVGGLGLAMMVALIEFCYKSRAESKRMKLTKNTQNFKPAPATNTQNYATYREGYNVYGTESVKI

Structure (SMILES) | ED50 [1] | ED50 [2]
COc1cc2c(cc1OC)C(c1ccccc1)=NN(C(C)=O)C(=O)C2 | 72.1 µmol/kg | 101 µmol/kg
COc1cc2c(O)nnc(-c3ccc(NC(C)=O)cc3)c2cc1OC | 48.8 µmol/kg | 62 µmol/kg
COc1cc2c(cc1OC)C(c1cccc(N)c1)=NN(C)C(=O)C2 | 30.6 µmol/kg | 36.8 µmol/kg
COc1cc2c(cc1OC)C(c1ccc(Cl)cc1)=NN=C(S)C2 | 55 µmol/kg | 82.4 µmol/kg
COc1cc2c(cc1OC)C(c1ccc(Cl)cc1)=NN(C)C(=O)C2 | 38.6 µmol/kg | 41.2 µmol/kg
COc1cc2c(cc1OC)C(c1cccc(N)c1)=NN=C(S)C2 | 9.1 µmol/kg | 18.8 µmol/kg
SC1=NN=C(c2ccccc2)c2cc3c(cc2C1)OCO3 | 18.8 µmol/kg | 23.8 µmol/kg
COc1cc2c(cc1OC)C(c1ccc(Br)cc1)=NNC(=O)C2 | 82.5 µmol/kg | 110 µmol/kg
COc1cc2c(O)nnc(-c3ccc(N)cc3)c2cc1OC | 52 µmol/kg | 60.5 µmol/kg
COc1cc2c(cc1OC)C(c1ccc(N)cc1)=Nn1cnnc1C2 | 48.3 µmol/kg | 57.3 µmol/kg
COc1cc2c(cc1OC)C(c1ccc([N+](=O)[O-])cc1)NCC2 (configuration not stated) | 56.1 µmol/kg | 100 µmol/kg
COc1cc2c(cc1OC)C(c1ccc(N)cc1)=NNC(=O)C2 | 12.6 µmol/kg | 15 µmol/kg
O=C1Cc2cc3c(cc2C(c2ccccc2)=NN1)OCO3 | 40.6 µmol/kg | 43.3 µmol/kg
COc1cc2c(O)nnc(-c3cccc(N)c3)c2cc1OC | 59.9 µmol/kg | 68.3 µmol/kg
COc1cc2c(cc1OC)C(c1ccc(N)cc1)=NN(C)C(=O)C2 | 43.7 µmol/kg | 50.2 µmol/kg
COc1cc2c(cc1OC)C(c1ccc([N+](=O)[O-])cc1)=NN=C(S)C2 | 69.8 µmol/kg | 93.4 µmol/kg
Nc1cccc(-c2nnc(O)c3cc4c(cc23)OCO4)c1 | 15.7 µmol/kg | 23.3 µmol/kg
COc1cc2c(cc1OC)C(c1ccc(F)cc1)=Nn1c(O)nnc1C2 | 21.8 µmol/kg | 32.1 µmol/kg
COc1cc2c(cc1OC)C(c1ccccc1)=NN(C)C(=S)C2 | 24.7 µmol/kg | 30.6 µmol/kg
CNC(=O)n1nc(-c2ccc(N)cc2)c2cc3c(cc2c1=O)OCO3 | 16.8 µmol/kg | 23.4 µmol/kg
COc1cc2c(cc1OC)C(c1ccc(Br)cc1)=NN=C(S)C2 | 33.3 µmol/kg | 52.1 µmol/kg

Structure (SMILES) | ED50 [1] | ED50 [2]
COc1cc2c(cc1OC)C(c1ccc(F)cc1)=NNC(=O)C2 | 57.2 µmol/kg | 78 µmol/kg
COc1cc2c(cc1OC)C(c1ccc(Cl)cc1)NCC2 (configuration not stated) | 19.3 µmol/kg | 20.1 µmol/kg
COc1cc2c(cc1OC)C(c1ccc(Cl)cc1)=NNC(=O)C2 | 75.3 µmol/kg | 102 µmol/kg
COc1cc2c(cc1OC)C(c1ccc(Br)cc1)=NN(C)C(=O)C2 | 38 µmol/kg | 63 µmol/kg
COc1cc2c(cc1OC)C(c1ccc(N)cc1)=Nn1c(C)nnc1C2 | 44.7 µmol/kg | 59.9 µmol/kg
COc1cc2c(cc1OC)C(c1ccc([N+](=O)[O-])cc1)=Nn1c(O)nnc1C2 | 58.3 µmol/kg | 74.1 µmol/kg
Oc1nnc(-c2ccccc2)c2cc3c(cc12)OCO3 | 31.3 µmol/kg | 36.7 µmol/kg
COc1ccc2c(c1)CC(=O)NN=C2c1ccccc1 | 64.8 µmol/kg | 75.5 µmol/kg
COc1cc2c(O)nnc(-c3cccc([N+](=O)[O-])c3)c2cc1OC | 75.5 µmol/kg | 81.7 µmol/kg
COc1cc2c(cc1OC)C(c1cccc([N+](=O)[O-])c1)=Nn1c(O)nnc1C2 | 43.2 µmol/kg | 56.4 µmol/kg
Nc1ccc(C2=NNC(=O)Cc3cc4c(cc32)OCO4)cc1 | 10.9 µmol/kg | 15.4 µmol/kg
CN1N=C(c2ccccc2)c2cc3c(cc2CC1=O)OCO3 | 70.4 µmol/kg | 82.5 µmol/kg
COc1cc2c(-c3cccc([N+](=O)[O-])c3)nn(C)c(=O)c2cc1OC | 80.3 µmol/kg | 110 µmol/kg
Nc1ccc(-c2nnc(O)c3cc4c(cc23)OCO4)cc1 | 7.56 µmol/kg | 21.2 µmol/kg
COc1cc2c(cc1OC)C(c1ccccc1)=NN=C(S)C2 | 15 µmol/kg | 19.7 µmol/kg
COc1cc2c(cc1OC)C(c1ccccc1)=NNC(=O)C2 | 31.8 µmol/kg | 33.9 µmol/kg
CNC(=O)N1N=C(c2ccc(N)cc2)c2cc3c(cc2CC1=O)OCO3 | 8.7 µmol/kg | 12.4 µmol/kg
CCCNC(=O)n1nc(-c2ccc(N)cc2)c2cc3c(cc2c1=O)OCO3 | 6.82 µmol/kg | 15.8 µmol/kg
CC1=NN=C(c2ccc(N)cc2)c2cc3c(cc2C1)OCO3 | 25.3 µmol/kg | 35.8 µmol/kg
COc1cc2c(cc1OC)C(c1cccc([N+](=O)[O-])c1)NCC2 (configuration not stated) | 7.19 µmol/kg | 19.3 µmol/kg
COc1cc2c(cc1OC)C(c1ccc([N+](=O)[O-])cc1)=NN(C)C(=S)C2 | 81.5 µmol/kg | 103 µmol/kg

Structure (SMILES) | ED50 [1] | ED50 [2]
O=C1Cc2cc3c(cc2C(c2ccc(F)cc2)=NN1)OCO3 | 63.8 µmol/kg | 89.8 µmol/kg
COc1cc2c(cc1OC)C(c1cccc([N+](=O)[O-])c1)N(C(C)=O)CC2 (configuration not stated) | 12.7 µmol/kg | 37.2 µmol/kg
COc1cc2c(cc1OC)C(c1ccccc1)=NN(C)C(=O)C2 | 26.7 µmol/kg | 37.8 µmol/kg
COc1cc2c(cc1OC)C(c1ccc(N)cc1)=NN(C)C(=S)C2 | 20.3 µmol/kg | 29.8 µmol/kg
CN1N=C(c2ccc(N)cc2)c2cc3c(cc2CC1=O)OCO3 | 29.5 µmol/kg | 41.1 µmol/kg
COc1cc2c(cc1OC)C(c1ccc(N)cc1)=Nn1c(O)nnc1C2 | 10.2 µmol/kg | 16.1 µmol/kg
COc1ccc2c(c1)CC(=O)NN1C(c3ccccc3)=NOC21c1ccccc1 (configuration not stated) | 100 µmol/kg | 119 µmol/kg
COc1cc2c(cc1OC)C(c1ccc(N(C(C)=O)C(C)=O)cc1)=NN(C(C)=O)C(=O)C2 | 43.9 µmol/kg | 56.8 µmol/kg
COc1cc2c(cc1OC)C(c1ccccc1)=Nn1c(O)nnc1C2 | 27.5 µmol/kg | 44.6 µmol/kg
COc1cc2c(cc1OC)C(c1ccc(N)cc1)=NN=C(S)C2 | 3.3 µmol/kg | 6.3 µmol/kg
Nc1cccc(C2=NNC(=O)Cc3cc4c(cc32)OCO4)c1 | 12.7 µmol/kg | 18 µmol/kg
COc1ccc2c(c1)CC(=O)N(C)N=C2c1ccccc1 | 99.1 µmol/kg | 117 µmol/kg
O=C1Cc2cc3c(cc2C(c2ccc(O)cc2)=NN1)OCO3 | 49.6 µmol/kg | 52.3 µmol/kg
COc1cc2c(cc1OC)C(c1ccc([N+](=O)[O-])cc1)=Nn1c(C)nnc1C2 | 59.3 µmol/kg | 66.7 µmol/kg
COc1cc2c(cc1OC)C(c1cccc(N)c1)=Nn1c(O)nnc1C2 | 13.1 µmol/kg | 20.1 µmol/kg
COc1cc2c(-c3cccc(N)c3)nn(C)c(=O)c2cc1OC | 55.2 µmol/kg | 63.7 µmol/kg
COc1cc2c(cc1OC)C(c1ccc(Br)cc1)=NN(C)C(=S)C2 | 60.4 µmol/kg | 105 µmol/kg
COc1cc2c(cc1OC)C(c1ccc(Br)cc1)NCC2 (configuration not stated) | 12.5 µmol/kg | 30.6 µmol/kg
COc1cc2c(cc1OC)C(c1cccc(N)c1)=NNC(=O)C2 | 18.3 µmol/kg | 19.3 µmol/kg
